IC50, solubility and inhibition data for 27 molecules are collected here from ChEMBL document CHEMBL1144831, “Pyrano-[2,3b]-pyridines as potassium channel antagonists” (Bioorg Med Chem Lett, 2008).

The target in series [1] is T1, Potassium voltage-gated channel subfamily A member 5 (Homo sapiens, UniProt P22460). Description: Inhibition of human Kv1.5 channel expressed in mouse L929 cells assessed as blockade of ultra rapidly activating potassium current by voltage clamp technique. The format is cell-based.
T1 sequence (P22460 whole entry): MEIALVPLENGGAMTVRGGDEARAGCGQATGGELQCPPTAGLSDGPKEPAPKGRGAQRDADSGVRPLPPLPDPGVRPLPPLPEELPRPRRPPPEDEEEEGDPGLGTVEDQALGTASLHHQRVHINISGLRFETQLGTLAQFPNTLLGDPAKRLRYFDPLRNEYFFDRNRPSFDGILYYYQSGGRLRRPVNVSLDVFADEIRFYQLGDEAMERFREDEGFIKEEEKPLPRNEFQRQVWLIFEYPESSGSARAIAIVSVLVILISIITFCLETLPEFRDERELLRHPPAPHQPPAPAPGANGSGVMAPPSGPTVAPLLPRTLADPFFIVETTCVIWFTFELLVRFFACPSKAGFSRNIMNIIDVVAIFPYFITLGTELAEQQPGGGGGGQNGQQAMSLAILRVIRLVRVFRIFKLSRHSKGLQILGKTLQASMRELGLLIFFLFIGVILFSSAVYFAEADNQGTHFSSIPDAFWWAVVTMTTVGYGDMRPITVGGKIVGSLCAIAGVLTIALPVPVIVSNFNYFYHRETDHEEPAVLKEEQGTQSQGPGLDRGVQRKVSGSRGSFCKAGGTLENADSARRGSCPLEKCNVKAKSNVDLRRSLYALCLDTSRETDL
Series [2] can be described thus: Aqueous solubility at pH 6.5. The class given is physicochemical.
Series [3] has as its target T1, Potassium voltage-gated channel subfamily A member 5. The series can be described thus: Inhibition of human Kv1.5 channel expressed in mouse L929 cells assessed as blockade of ultra rapidly activating potassium current at 1 uM by voltage clamp technique. The format is cell-based.

In brackets after ≈: the same amount, converted by molar mass.

By IC50 is commonly meant the concentration at which inhibition is half-maximal. `CCc1ccc(S(=O)(=O)N[C@H]2CCCc3ccc(N(Cc4cccc(C)n4)C(=O)CCc4ccccc4)cc32)cc1`: in series [1], the IC50 worked out at 46 nM.

For `CCc1ccc(S(=O)(=O)N[C@@H]2c3cc(NC(=O)c4cccc(OC)c4)ccc3C[C@H]2O)cc1`, the half-inhibitory concentration (IC50) in series [1] was 50 nM.

What is called solubility is the concentration that dissolves in the medium under given conditions. A lower solubility goes with a poorly soluble substance. As to `CCc1ccc(S(=O)(=O)N[C@@H]2c3cc(C(=O)N(CC)Cc4ccccc4F)ccc3OC(C)(C)[C@H]2O)cc1` (racemic), the solubility in series [2] amounted to 10 µg/mL (≈ 18.5 µM).

One may read the inhibition as the share of the control response that was lost under treatment. On to `CCc1ccc(S(=O)(=O)N[C@@H]2c3cc(C(=O)N(CC)Cc4ccccc4OC)cnc3OC(C)(C)[C@H]2O)cc1` (racemic), for which the inhibition in series [3] was determined as 35%. Also, the IC50 in series [1] came out at 2090 nM.

Turning to `CCc1ccc(S(=O)(=O)N[C@@H]2c3cc(C(=O)N(CC)Cc4ccc(C)cc4)cnc3OC(C)(C)[C@H]2O)cc1` (racemic), in series [3], the inhibition is 15%. In addition, the half-inhibitory concentration (IC50) in series [1] was 1560 nM.

With `CCc1ccc(S(=O)(=O)N[C@@H]2c3cc(C(=O)N(CC)c4cc(F)ccc4F)cnc3OC(C)(C)[C@H]2O)cc1` (racemic), in series [3], the inhibition amounted to 52%. In addition, in series [1], the IC50 is 912 nM.

As for `CCc1ccc(S(=O)(=O)N[C@@H]2c3cc(C(=O)N(CC)Cc4c(F)cccc4Cl)cnc3OC(C)(C)[C@H]2O)cc1` (racemic), in series [3], the inhibition was 54%. Besides, the IC50 in series [1] is 615 nM.

As to `CCc1ccc(S(=O)(=O)N[C@@H]2c3cc(C(=O)Nc4ccc(Br)cc4)ccc3OC(C)(C)[C@H]2O)cc1` (racemic), the inhibition in series [3] is 73%. In series [1], the IC50 is 316 nM.

Consider `CCc1ccc(S(=O)(=O)N[C@@H]2c3cc(C(=O)N(CC)Cc4ccc(OC)cc4)cnc3OC(C)(C)[C@H]2O)cc1` (racemic), for which the inhibition in series [3] is 70%. Moreover, the IC50 in series [1] stood at 605 nM.

Turning to `CCc1ccc(S(=O)(=O)N[C@@H]2c3cc(C(=O)N4CCC[C@H]4CNc4c(C)cccc4C)ccc3OC(C)(C)[C@H]2O)cc1` (racemic), in series [1], the IC50 was 60 nM.

With `CCc1ccc(S(=O)(=O)N[C@@H]2c3cc(C(=O)N(CC)c4ccccc4)cnc3OC(C)(C)[C@H]2O)cc1` (racemic), in series [3], the inhibition was 89%. Besides, in series [2], the solubility stood at 108 µg/mL (≈ 212 µM). For the same molecule, the IC50 in series [1] is 378 nM.

With `CCc1ccc(S(=O)(=O)N[C@@H]2c3cc(C(=O)N(CC)c4cccc(Cl)c4)cnc3OC(C)(C)[C@H]2O)cc1` (racemic), the inhibition in series [3] stood at 64%. Also, the IC50 in series [1] was 649 nM.

As for `CCc1ccc(S(=O)(=O)N[C@@H]2c3cc(C(=O)N(CC)c4cccc(C)c4)cnc3OC(C)(C)[C@H]2O)cc1` (racemic), in series [3], the inhibition worked out at 58%. In addition, the IC50 in series [1] is 776 nM.

Consider `CCc1ccc(S(=O)(=O)N[C@@H]2c3cc(C(=O)N(C)Cc4ccccc4)cnc3OC(C)(C)[C@H]2O)cc1` (racemic), for which the inhibition in series [3] turned out to be 12%.

For the molecule `CCc1ccc(S(=O)(=O)N[C@@H]2c3cc(C(=O)N(C)c4ccccc4)ccc3OC(C)(C)[C@H]2O)cc1` (racemic), in series [3], the inhibition was determined as 87%.

For `CCc1ccc(S(=O)(=O)N[C@@H]2c3cc(C(=O)N(C)c4ccccc4)cnc3OC(C)(C)[C@H]2O)cc1` (racemic), in series [3], the inhibition was found to be 12%.

With `CCc1ccc(S(=O)(=O)N[C@@H]2c3cc(C(=O)N(CC)Cc4cccc(OC)c4)cnc3OC(C)(C)[C@H]2O)cc1` (racemic), the inhibition in series [3] stood at 23%.

On to `CCc1ccc(S(=O)(=O)N[C@@H]2c3cc(C(=O)N(CC)Cc4ccccc4)cnc3OC(C)(C)[C@H]2O)cc1` (racemic), for which the inhibition in series [3] was found to be 20%.

Take `CCc1ccc(S(=O)(=O)N[C@@H]2c3cc(C(=O)N(CC)c4ccc(OC)cc4)cnc3OC(C)(C)[C@H]2O)cc1` (racemic): the inhibition in series [3] is 22%.

Turning to `CCc1ccc(S(=O)(=O)N[C@@H]2c3cc(C(=O)N4CCC[C@H]4CNc4c(C)cccc4C)cnc3OC(C)(C)[C@H]2O)cc1` (racemic), the inhibition in series [3] is 15%.

For the molecule `CCc1ccc(S(=O)(=O)N[C@@H]2c3cc(C(=O)N4CCN=C4c4ccccc4)cnc3OC(C)(C)[C@H]2O)cc1` (racemic), in series [3], the inhibition was found to be 2%.

For the molecule `CCc1ccc(S(=O)(=O)N[C@@H]2c3cc(C(=O)N4CCc5ccccc54)cnc3OC(C)(C)[C@H]2O)cc1` (racemic), the inhibition in series [3] is 30%.

For the molecule `CCc1ccc(S(=O)(=O)N[C@@H]2c3cc(C(=O)NCc4ccccc4)cnc3OC(C)(C)[C@H]2O)cc1` (racemic), the inhibition in series [3] was 17%.

For `CCc1ccc(S(=O)(=O)N[C@@H]2c3cc(C(=O)NCc4ccccc4F)cnc3OC(C)(C)[C@H]2O)cc1` (racemic), the inhibition in series [3] was determined as 4%.

Turning to `CCc1ccc(S(=O)(=O)N[C@@H]2c3cc(C(=O)Nc4cc(NC(C)=O)n[nH]4)cnc3OC(C)(C)[C@H]2O)cc1` (racemic), the inhibition in series [3] came out at 31%.

For `CCc1ccc(S(=O)(=O)N[C@@H]2c3cc(C(=O)Nc4ccc(Br)cc4)cnc3OC(C)(C)[C@H]2O)cc1` (racemic), the inhibition in series [3] stood at 8%.

Turning to `CCc1ccc(S(=O)(=O)N[C@@H]2c3cc(C(=O)Nc4nnc(C(F)(F)F)s4)cnc3OC(C)(C)[C@H]2O)cc1` (racemic), the inhibition in series [3] stood at 3%.
